The record followed here is patent EP0621779B1, “INDOMETHACIN LYSINATE FOR THERAPEUTIC USE IN OPHTHALMOLOGY” (JUNG, Jean, priority 1992, dated 1993).

The nature of series [1]: Ocular passage / ocular bioavailability after instillation of eye drops. Format: in vivo. The method, then:
Les biodisponibilités oculaires des deux formes pharmaceutiques sont équivalentes : le passage obtenu avec la solution à 0,142 % d'indométacine (du lysinate d'indométacine) est similaire à celui obtenu avec la suspension à 1 % (INDOCID®). Cette dernière constatation permet d'affirmer que le passage des collyres à travers les différentes barrières oculaires s'effectue bien par la fraction soluble et non par endocytose de microparticules.
Il faut noter également qu'au temps de prélèvement de 2 h les concentrations d'indométacine mesurées dans l'oeil traité par la solution de lysinate d'indométacine à 0,142 % d'indométacine sont supérieures à celles mesurées dans l'oeil traité par la suspension à 1 % d'indométacine; cela peut être dû à une élimination plus rapide de la forme suspension par le fluide lacrymal en raison de l'irritation oculaire provoquée par la taille des particules.
Elle augmente ensuite régulièrement pour atteindre sa valeur maximale environ 30 minutes après l'instillation (3 à 5 % de la dose instillée) et diminue finalement.

The nature of series [2]: Solubility in solvents (physico-chemical characters). Format: physicochemical. An excerpt:
Les données des études spectrales (IR, UV, RNM) sont conformes à la structure définie.

A short description of series [3]: Stability of the isolated salt (storage; dry heat sterilisation of the powder). Format: physicochemical. As to conditions: poudre. The source says: Dans un premier temps, la stabilité du lysinate d'indométacine en fonction de la température a été prouvée et les conditions de température et de durée utilisées pour la stérilisation ont été définis. Dans un deuxième temps, une étude microbiologique a permis de vérifier l'efficacité de la méthode.

In the case of `COc1ccc2c(c1)c(CC(=O)O)c(C)n2C(=O)c1ccc(Cl)cc1` [indométacine, reference compound], in series [1] (10 minutes après l'instillation), the “concentration de l'indométacine dans l'humeur aqueuse” value is “pratiquement nulle”. For the same compound, the Tmax in series [1] (in vivo, topical or ocular, humeur aqueuse, read-out: time after instillation to reach valeur maximale dans l'humeur aqueuse (converted)) was ~30 min.

In the case of `COc1ccc2c(c1)c(CC(=O)O)c(C)n2C(=O)c1ccc(Cl)cc1` [lysinate d'indométacine], the solubilité result is “pratiquement insoluble” in series [2] (dans l'acétone); “totalement insoluble” in series [2] (dans l'acétonitrile); “soluble” in series [2] (dans l'eau); “totalement insoluble” in series [2] (dans l'éthanol); “totalement insoluble” in series [2] (dans l'éther); “pratiquement insoluble” in series [2] (dans le chloroforme). Besides, the figures for the solubilité entry in series [2] (dans le dichlorométhane) and in series [2] (dans le méthanol) were “pratiquement insoluble” and “soluble”, respectively. The “passage oculaire (biodisponibilité oculaire)” value in series [1] (solution à 0,142 % d'indométacine, compared with suspension à 1 % (INDOCID®)) is on record as “similaire”. In series [1] (temps de prélèvement de 2 h, solution à 0,142 % d'indométacine compared with suspension à 1 % d'indométacine), the “concentrations d'indométacine mesurées dans l'oeil traité” value is listed as “supérieures”. The “stabilité dans le temps” value in series [3] (conditions classiques de conservation) was “stables dans le temps”. Further, the “stabilité à la stérilisation par la chaleur sèche” value in series [3] (température supérieure à 170°C) was “sans être dégradé”.
